Test results from patent US7884186B2, “Isotopically labeled trapping agent and method for identifying reactive metabolites” (Janssen Pharmaceutica NV, priority 2006, dated 2011).

System: human liver microsomal preparations (cytochrome P450 enzyme preparations)
Assay: Reactive metabolite trapping with compound of formula (I) / (I-IS) in human liver microsomal incubation, neutral loss (129 Da) LC-MS/MS
Format: in vitro ADME
Details: 10 μM test compound, 1 mg/ml microsomal proteins, 1 mM 1:1 mixture of formula (I) and (I-IS), NADPH generating system, 60 min, 37° C.; neutral loss of 129 Da, doublet mass difference 8 Da
Method: All microsomal incubations described herein were performed at 37° C. in a water bath. The test compound was mixed with human liver microsomal preparations (cytochrome P450 enzyme preparations) in 50 mM potassium phosphate buffer (pH 7.4) supplemented with the non-isotopically labeled compound of formula (I) and the isotopically labeled compound of formula (I-S) that were pre-mixed at an equal molar ratio of 1:1. The resulting mixtures were pre-warmed at 37° C. for 5 min. To the reaction mixtures was then added the co-factor—NADPH generating system—(to initiate the reaction) to yield a final volume of 1000 μl.
The resulting reaction mixtures contained 10 μM test compounds, 1 mg/ml microsomal proteins, 1 mM mixture of non-isotopically labeled compound of formula (I) and isotopically labeled compound of formula (I-IS), 1.3 mM NADP^+, 3.3 mM glucose-6-phosphate, 0.4 U/ml glucose-6-phosphate dehydrogenase, 3.3 mM magnesium chloride.
After a 60 min incubation, the reactions were terminated by the addition of 150 μl of trichloroacetic acid (10%). The resulting mixtures were centrifuged at 10,000 g for 15 min at 4° C. to pellet the precipitated protein, and the supernatants were subjected to solid-phase extractions. Alternatively, the reaction mixtures were subjected to liquid-liquid extractions to recover the metabolites from supernatants.
MS analyses were performed on a Micromass (Manchester, UK) Quattro Micro triple quadrupole mass spectrometer. The ESI ion source was operated in the positive ion mode, and experimental parameters were set as follows: capillary voltage 3.2 kV, source temperature 120° C., desolvation temperature 300° C., sample cone voltage 26 V. Mass spectra collected in the neutral loss scanning mode were obtained by scanning over the range m/z 400-800 in 2.0 s.
For complete profiling of reactive metabolites, samples were first subjected to chromatographic separations with an Agilent 1100 HPLC system with an auto-sampler (Agilent Technologies, Palo Alto, Calif.), and eluents were introduced to the Quattro Micro triple quadrupole mass spectrometer operated in the neutral loss scanning mode. An Agilent Zorbax SB C18 column (2.1×50 mm) was used for the chromatographic separation. […] At 7 min, the column was flushed with 95% acetonitrile for 2 min before re-equilibration at initial conditions. LC-MS/MS analyses were carried out on 10-μl aliquots of cleaned samples. Data were processed using the Masslynx version 4.0 software from Micromass. After a positive peak was detected, MS/MS spectra were subsequently obtained to further confirm the structure of the adduct(s). To acquire CID (Collision Induced Dissociation) spectra, the mass spectrometer was operated in the multiple reaction monitoring (MRM) mode.

## c1coc(-c2cccs2)c1 [2-(2-Thienyl)-furan]
  components (reactive metabolite adducts) showing the characteristic isotopic doublet in the neutral loss scan: showed the characteristic isotopic doublet

## Cc1ccco1 [2-Methylfuran]
  components (reactive metabolite adducts) showing the characteristic isotopic doublet in the neutral loss scan: Two isomeric adducts

## O=C(O)Cc1ccccc1Nc1c(Cl)cccc1Cl [Diclofenac]
  components (reactive metabolite adducts) showing the characteristic isotopic doublet in the neutral loss scan: two of the components showed the expected isotope doublet

## c1ccoc1 [Furan]
  components (reactive metabolite adducts) showing the characteristic isotopic doublet in the neutral loss scan: displayed the characteristic isotopic doublet

## Cc1coc2c1CCC(C)C2 (stereo not drawn) [Menthofuran]
  components (reactive metabolite adducts) showing the characteristic isotopic doublet in the neutral loss scan: One component

## COc1ccc2[nH]c([S+]([O-])Cc3ncc(C)c(OC)c3C)nc2c1 (stereo not drawn) [Omeprazole]
  components (reactive metabolite adducts) showing the characteristic isotopic doublet in the neutral loss scan: Only one component
